{"source": "patent US6638973B2", "about": "“Taxane formulations” (FSU Research Foundation, Inc., priority 2000, dated 2003)", "data": [{"system": "HCT116 cells", "experiment": "In vitro cytotoxicity measured by the cell colony formation assay", "assay_type": "cell-based", "settings": "HCT116 cells, 72 h incubation with drug, colonies counted after 7 days; ID50 = drug concentration producing 50% inhibition of colony formation; read-out: IN VITRO ID 50 (nm) HCT116", "procedure,_shortened": "(§1)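 Colony-forming survival was scored 7 days after a 72 h, 37 °C compound exposure followed by washout into fresh medium.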", "units": {"IC50": "nM"}, "values": [{"smiles": "CCOC(=O)O[C@H]1C(=O)[C@@]2(C)C([C@H](OC(=O)c3ccccc3)[C@]3(O)C[C@H](OC(=O)[C@H](O)[C@@H](NC(=O)OC(C)(C)C)c4ccco4)C(C)=C1C3(C)C)[C@]1(OC(C)=O)CO[C@@H]1C[C@@H]2O", "note": "(some centres unmarked) [Compound 1822]", "IC50": "< 1"}, {"smiles": "CCOC(=O)O[C@H]1C(=O)[C@@]2(C)C([C@H](OC(=O)c3ccccc3)[C@]3(O)C[C@H](OC(=O)[C@H](O)[C@@H](NC(=O)OC(C)(C)C)c4ccoc4)C(C)=C1C3(C)C)[C@]1(OC(C)=O)CO[C@@H]1C[C@@H]2O", "note": "(some centres unmarked) [Compound 1838]", "IC50": "< 1"}, {"smiles": "CCOC(=O)O[C@H]1C(=O)[C@@]2(C)C([C@H](OC(=O)c3ccccc3)[C@]3(O)C[C@H](OC(=O)[C@H](O)[C@@H](NC(=O)OC(C)(C)C)c4ccsc4)C(C)=C1C3(C)C)[C@]1(OC(C)=O)CO[C@@H]1C[C@@H]2O", "note": "(some centres unmarked) [Compound 1841]", "IC50": "< 1"}, {"smiles": "CCOC(=O)O[C@H]1C(=O)[C@@]2(C)C([C@H](OC(=O)c3ccccc3)[C@]3(O)C[C@H](OC(=O)[C@H](O)[C@@H](NC(=O)OC(C)(C)C)C4CCC4)C(C)=C1C3(C)C)[C@]1(OC(C)=O)CO[C@@H]1C[C@@H]2O", "note": "(some centres unmarked) [Compound 1855]", "IC50": "< 10"}, {"smiles": "CCOC(=O)O[C@H]1C(=O)[C@@]2(C)C([C@H](OC(=O)c3ccccc3)[C@]3(O)C[C@H](OC(=O)[C@H](O)[C@@H](NC(=O)OC(C)(C)C)c4ccc([N+](=O)[O-])cc4)C(C)=C1C3(C)C)[C@]1(OC(C)=O)CO[C@@H]1C[C@@H]2O", "note": "(some centres unmarked) [Compound 1866]", "IC50": "< 1"}, {"smiles": "COC(=O)O[C@H]1C(=O)[C@@]2(C)C([C@H](OC(=O)c3ccccc3)[C@]3(O)C[C@H](OC(=O)[C@H](O)[C@H](C=C(C)C)NC(=O)OC(C)(C)C)C(C)=C1C3(C)C)[C@]1(OC(C)=O)CO[C@@H]1C[C@@H]2O", "note": "(some centres unmarked) [Compound 1999]", "IC50": "< 1"}, {"smiles": "COC(=O)O[C@H]1C(=O)[C@@]2(C)C([C@H](OC(=O)c3ccccc3)[C@]3(O)C[C@H](OC(=O)[C@H](O)[C@@H](NC(=O)OC(C)(C)C)c4ccccn4)C(C)=C1C3(C)C)[C@]1(OC(C)=O)CO[C@@H]1C[C@@H]2O", "note": "(some centres unmarked) [Compound 2002]", "IC50": "< 1"}, {"smiles": "COC(=O)O[C@H]1C(=O)[C@@]2(C)C([C@H](OC(=O)c3ccccc3)[C@]3(O)C[C@H](OC(=O)[C@H](O)[C@@H](NC(=O)OC(C)(C)C)c4cccnc4)C(C)=C1C3(C)C)[C@]1(OC(C)=O)CO[C@@H]1C[C@@H]2O", "note": "(some centres unmarked) [Compound 2011]", "IC50": "< 10"}, {"smiles": "COC(=O)O[C@H]1C(=O)[C@@]2(C)C([C@H](OC(=O)c3ccccc3)[C@]3(O)C[C@H](OC(=O)[C@H](O)[C@@H](NC(=O)OC(C)(C)C)c4ccncc4)C(C)=C1C3(C)C)[C@]1(OC(C)=O)CO[C@@H]1C[C@@H]2O", "note": "(some centres unmarked) [Compound 2020]", "IC50": "< 1"}, {"smiles": "COC(=O)O[C@H]1C(=O)[C@@]2(C)C([C@H](OC(=O)c3ccccc3)[C@]3(O)C[C@H](OC(=O)[C@H](O)[C@@H](NC(=O)OC(C)(C)C)c4ccoc4)C(C)=C1C3(C)C)[C@]1(OC(C)=O)CO[C@@H]1C[C@@H]2O", "note": "(some centres unmarked) [Compound 2032]", "IC50": "< 1"}, {"smiles": "COC(=O)O[C@H]1C(=O)[C@@]2(C)C([C@H](OC(=O)c3ccccc3)[C@]3(O)C[C@H](OC(=O)[C@H](O)[C@@H](NC(=O)OC(C)(C)C)c4cccs4)C(C)=C1C3(C)C)[C@]1(OC(C)=O)CO[C@@H]1C[C@@H]2O", "note": "(some centres unmarked) [Compound 2044]", "IC50": "< 1"}, {"smiles": "COC(=O)O[C@H]1C(=O)[C@@]2(C)C([C@H](OC(=O)c3ccccc3)[C@]3(O)C[C@H](OC(=O)[C@H](O)[C@@H](NC(=O)OC(C)(C)C)c4ccsc4)C(C)=C1C3(C)C)[C@]1(OC(C)=O)CO[C@@H]1C[C@@H]2O", "note": "(some centres unmarked) [Compound 2050]", "IC50": "< 1"}, {"smiles": "COC(=O)O[C@H]1C(=O)[C@@]2(C)C([C@H](OC(=O)c3ccccc3)[C@]3(O)C[C@H](OC(=O)[C@H](O)[C@@H](NC(=O)OC(C)(C)C)C(C)C)C(C)=C1C3(C)C)[C@]1(OC(C)=O)CO[C@@H]1C[C@@H]2O", "note": "(some centres unmarked) [Compound 2060]", "IC50": "< 10"}, {"smiles": "COC(=O)O[C@H]1C(=O)[C@@]2(C)C([C@H](OC(=O)c3ccccc3)[C@]3(O)C[C@H](OC(=O)[C@H](O)[C@@H](NC(=O)OC(C)(C)C)C(C)C)C(C)=C1C3(C)C)[C@]1(OC(C)=O)CO[C@@H]1C[C@@H]2O", "note": "(some centres unmarked) [Compound 2062]", "IC50": "< 10"}, {"smiles": "COC(=O)O[C@H]1C(=O)[C@@]2(C)C([C@H](OC(=O)c3ccccc3)[C@]3(O)C[C@H](OC(=O)[C@H](O)[C@@H](NC(=O)OC(C)(C)C)C4CCC4)C(C)=C1C3(C)C)[C@]1(OC(C)=O)CO[C@@H]1C[C@@H]2O", "note": "(some centres unmarked) [Compound 2077]", "IC50": "< 10"}, {"smiles": "COC(=O)O[C@H]1C(=O)[C@@]2(C)C([C@H](OC(=O)c3ccccc3)[C@]3(O)C[C@H](OC(=O)[C@H](O)[C@@H](NC(=O)OC(C)(C)C)c4ccc([N+](=O)[O-])cc4)C(C)=C1C3(C)C)[C@]1(OC(C)=O)CO[C@@H]1C[C@@H]2O", "note": "(some centres unmarked) [Compound 2088]", "IC50": "< 1"}, {"smiles": "COC(=O)O[C@H]1C(=O)[C@@]2(C)C([C@H](OC(=O)c3ccccc3)[C@]3(O)C[C@H](OC(=O)[C@H](O)[C@@H](NC(=O)OC(C)(C)C)c4ccccc4)C(C)=C1C3(C)C)[C@]1(OC(C)=O)CO[C@@H]1C[C@@H]2O", "note": "(some centres unmarked) [Compound 2092]", "IC50": "< 1"}]}, {"system": "HCT116 cells", "experiment": "In vitro cytotoxicity measured by the cell colony formation assay", "assay_type": "cell-based", "settings": "HCT116 colony formation; 72 h drug incubation, colonies counted after 7 days; Example 10, C-10 ester/C-7 hydroxy taxanes; read-out: IN VITRO ID 50 (nm) HCT116", "procedure,_shortened": "as §1", "units": {"IC50": "nM"}, "values": [{"smiles": "CC(=O)OC12COC1CC(O)C1(C)C(=O)C(OC(=O)c3cccs3)C3=C(C)C(OC(=O)C(O)C(C=C(C)C)NC(=O)OC(C)(C)C)CC(O)(C(OC(=O)c4ccccc4)C21)C3(C)C", "note": "(centres unmarked) [Compound 1879]", "IC50": "< 10"}, {"smiles": "CC(=O)OC12COC1CC(O)C1(C)C(=O)C(OC(=O)c3cccs3)C3=C(C)C(OC(=O)C(O)C(NC(=O)OC(C)(C)C)c4ccccn4)CC(O)(C(OC(=O)c4ccccc4)C21)C3(C)C", "note": "(centres unmarked) [Compound 1883]", "IC50": "< 10"}, {"smiles": "CC(=O)OC12COC1CC(O)C1(C)C(=O)C(OC(=O)c3cccs3)C3=C(C)C(OC(=O)C(O)C(NC(=O)OC(C)(C)C)c4ccco4)CC(O)(C(OC(=O)c4ccccc4)C21)C3(C)C", "note": "(centres unmarked) [Compound 1892]", "IC50": "< 1"}, {"smiles": "CC(=O)OC12COC1CC(O)C1(C)C(=O)C(OC(=O)c3cccs3)C3=C(C)C(OC(=O)C(O)C(NC(=O)OC(C)(C)C)c4cccs4)CC(O)(C(OC(=O)c4ccccc4)C21)C3(C)C", "note": "(centres unmarked) [Compound 1900]", "IC50": "< 1"}, {"smiles": "CC(=O)OC12COC1CC(O)C1(C)C(=O)C(OC(=O)c3cccs3)C3=C(C)C(OC(=O)C(O)C(NC(=O)OC(C)(C)C)c4ccc([N+](=O)[O-])cc4)CC(O)(C(OC(=O)c4ccccc4)C21)C3(C)C", "note": "(centres unmarked) [Compound 1911]", "IC50": "< 10"}, {"smiles": "CC(=O)OC12COC1CC(O)C1(C)C(=O)C(OC(=O)c3cccs3)C3=C(C)C(OC(=O)C(O)C(NC(=O)OC(C)(C)C)c4ccoc4)CC(O)(C(OC(=O)c4ccccc4)C21)C3(C)C", "note": "(centres unmarked) [Compound 1923]", "IC50": "< 1"}, {"smiles": "CC(=O)OC12COC1CC(O)C1(C)C(=O)C(OC(=O)c3cccs3)C3=C(C)C(OC(=O)C(O)C(NC(=O)OC(C)(C)C)c4ccsc4)CC(O)(C(OC(=O)c4ccccc4)C21)C3(C)C", "note": "(centres unmarked) [Compound 1939]", "IC50": "< 1"}, {"smiles": "CC(=O)OC12COC1CC(O)C1(C)C(=O)C(OC(=O)c3cccs3)C3=C(C)C(OC(=O)C(O)C(NC(=O)OC(C)(C)C)c4cccnc4)CC(O)(C(OC(=O)c4ccccc4)C21)C3(C)C", "note": "(centres unmarked) [Compound 1948]", "IC50": "< 10"}, {"smiles": "CC(=O)OC12COC1CC(O)C1(C)C(=O)C(OC(=O)c3cccs3)C3=C(C)C(OC(=O)C(O)C(NC(=O)OC(C)(C)C)c4ccncc4)CC(O)(C(OC(=O)c4ccccc4)C21)C3(C)C", "note": "(centres unmarked) [Compound 1954]", "IC50": "< 1"}, {"smiles": "CC(=O)OC12COC1CC(O)C1(C)C(=O)C(OC(=O)c3cccs3)C3=C(C)C(OC(=O)C(O)C(NC(=O)OC(C)(C)C)C(C)C)CC(O)(C(OC(=O)c4ccccc4)C21)C3(C)C", "note": "(centres unmarked) [Compound 1964]", "IC50": "< 10"}, {"smiles": "CC(=O)OC12COC1CC(O)C1(C)C(=O)C(OC(=O)c3cccs3)C3=C(C)C(OC(=O)C(O)C(NC(=O)OC(C)(C)C)C4CCC4)CC(O)(C(OC(=O)c4ccccc4)C21)C3(C)C", "note": "(centres unmarked) [Compound 1970]", "IC50": "< 10"}, {"smiles": "CC(=O)OC12COC1CC(O)C1(C)C(=O)C(OC(=O)c3cccs3)C3=C(C)C(OC(=O)C(O)C(NC(=O)OC(C)(C)C)c4ccccc4)CC(O)(C(OC(=O)c4ccccc4)C21)C3(C)C", "note": "(centres unmarked) [Compound 1988]", "IC50": "< 10"}, {"smiles": "CC(=O)OC12COC1CC(O)C1(C)C(=O)C(OC(=O)c3ccco3)C3=C(C)C(OC(=O)C(O)C(C=C(C)C)NC(=O)OC(C)(C)C)CC(O)(C(OC(=O)c4ccccc4)C21)C3(C)C", "note": "(centres unmarked) [Compound 2101]", "IC50": "< 1"}, {"smiles": "CC(=O)OC12COC1CC(O)C1(C)C(=O)C(OC(=O)c3ccco3)C3=C(C)C(OC(=O)C(O)C(NC(=O)OC(C)(C)C)c4ccccn4)CC(O)(C(OC(=O)c4ccccc4)C21)C3(C)C", "note": "(centres unmarked) [Compound 2111]", "IC50": "< 1"}, {"smiles": "CC(=O)OC12COC1CC(O)C1(C)C(=O)C(OC(=O)c3ccco3)C3=C(C)C(OC(=O)C(O)C(NC(=O)OC(C)(C)C)c4cccnc4)CC(O)(C(OC(=O)c4ccccc4)C21)C3(C)C", "note": "(centres unmarked) [Compound 2124]", "IC50": "< 10"}, {"smiles": "CC(=O)OC12COC1CC(O)C1(C)C(=O)C(OC(=O)c3ccco3)C3=C(C)C(OC(=O)C(O)C(NC(=O)OC(C)(C)C)c4ccncc4)CC(O)(C(OC(=O)c4ccccc4)C21)C3(C)C", "note": "(centres unmarked) [Compound 2132]", "IC50": "< 1"}, {"smiles": "CC(=O)OC12COC1CC(O)C1(C)C(=O)C(OC(=O)c3ccco3)C3=C(C)C(OC(=O)C(O)C(NC(=O)OC(C)(C)C)c4ccco4)CC(O)(C(OC(=O)c4ccccc4)C21)C3(C)C", "note": "(centres unmarked) [Compound 2142]", "IC50": "< 1"}, {"smiles": "CC(=O)OC12COC1CC(O)C1(C)C(=O)C(OC(=O)c3ccco3)C3=C(C)C(OC(=O)C(O)C(NC(=O)OC(C)(C)C)c4ccoc4)CC(O)(C(OC(=O)c4ccccc4)C21)C3(C)C", "note": "(centres unmarked) [Compound 2159]", "IC50": "< 1"}, {"smiles": "CC(=O)OC12COC1CC(O)C1(C)C(=O)C(OC(=O)c3ccco3)C3=C(C)C(OC(=O)C(O)C(NC(=O)OC(C)(C)C)c4cccs4)CC(O)(C(OC(=O)c4ccccc4)C21)C3(C)C", "note": "(centres unmarked) [Compound 2164]", "IC50": "< 1"}, {"smiles": "CC(=O)OC12COC1CC(O)C1(C)C(=O)C(OC(=O)c3ccco3)C3=C(C)C(OC(=O)C(O)C(NC(=O)OC(C)(C)C)c4ccsc4)CC(O)(C(OC(=O)c4ccccc4)C21)C3(C)C", "note": "(centres unmarked) [Compound 2173]", "IC50": "< 1"}, {"smiles": "CC(=O)OC12COC1CC(O)C1(C)C(=O)C(OC(=O)c3ccco3)C3=C(C)C(OC(=O)C(O)C(NC(=O)OC(C)(C)C)C(C)C)CC(O)(C(OC(=O)c4ccccc4)C21)C3(C)C", "note": "(centres unmarked) [Compound 2181]", "IC50": "< 10"}]}]}
